Experimental data reported in publication PMC2847038 (Hippocampus, 2010).

Biological target: T1, fatty acid amide hydrolase (FAAH) (Rattus norvegicus, UniProt P97612)
T1 sequence (P97612 1-579): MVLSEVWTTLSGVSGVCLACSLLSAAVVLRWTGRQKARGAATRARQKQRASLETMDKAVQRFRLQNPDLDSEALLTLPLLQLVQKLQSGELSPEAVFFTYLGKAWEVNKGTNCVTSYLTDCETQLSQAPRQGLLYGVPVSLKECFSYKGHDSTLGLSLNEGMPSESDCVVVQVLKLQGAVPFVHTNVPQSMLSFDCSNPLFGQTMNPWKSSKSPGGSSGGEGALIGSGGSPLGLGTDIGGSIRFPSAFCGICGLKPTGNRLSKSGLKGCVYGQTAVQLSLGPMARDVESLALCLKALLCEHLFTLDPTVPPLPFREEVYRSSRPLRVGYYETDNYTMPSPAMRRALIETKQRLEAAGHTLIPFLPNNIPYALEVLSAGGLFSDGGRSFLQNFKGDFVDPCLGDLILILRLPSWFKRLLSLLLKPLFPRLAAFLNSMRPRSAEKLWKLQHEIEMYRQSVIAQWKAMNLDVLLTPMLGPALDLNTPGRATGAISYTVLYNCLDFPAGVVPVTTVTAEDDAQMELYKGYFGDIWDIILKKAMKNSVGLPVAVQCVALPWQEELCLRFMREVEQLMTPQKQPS
Assay: Fatty acid amide hydrolase activity assay
Type: biochemical, Sprague-Dawley rats
Settings: hippocampus membranes

**Q.** With `CCCCC/C=C\C/C=C\C/C=C\C/C=C\CCCC(=O)NCCO` [anandamide, N-arachidonylethanolamide] as the compound, how does the “Vmax (maximal hydrolytic activity of FAAH)” value (CON animals) read?
**A.** Its value is 619.4 +/- 56.9 pmol/mg protein.

**Q.** What about the “Vmax (maximal hydrolytic activity of FAAH)” value (VEx animals) of the same compound?
**A.** Its value is 556.7 +/- 99.4 pmol/mg protein.
